Data on six compounds can be found in patent US8013170B2, “Substituted pyrrolo[1,2-d][1,4]-diazonines and treatment of brain damage” (priority 2003, dated 2011).

The structures appear in SMILES notation. Entries after “also recorded” stand apart in the source; their conditions may differ. Read-outs that look alike come from different tables or passages of the source.

For data set [1] the following is noted: rcm bond.
The subject of the next data set is cerebellar explants. The data set can be described thus: Cerebellar microexplants exposed to glutamate and 3-nitropropionic acid; live neurons with neurites counted. Format: cell-based, rat. To be noted: for numbers of cells having neurites: administered simultaneously with glutamate (1 mM) and 3-nitropropionic acid (0.5 mM), final concentrations 1-100 nM, postnatal day 8 Wistar rat cerebellar microexplants; for recovery from / prevention of glutamate-induced neurotoxicity: compound applied simultaneously, 1-100 nM. As for the experimental part:
To determine the effects of the compounds of the invention on neuronal cells in vitro, a series of studies was carried out using cerebellar explants from […]. In vitro systems are suitable for studying neuronal proliferation, neurite growth, formation of nerve bundles and effects of toxins on neural cells, effects that parallel effects observed in vivo. Thus, results of studies using in vitro cerebellar explants are predictive of effects of interventions in vivo.
In a first series of studies, effects of glutamate on cerebellar explants were determined. At physiological concentrations, glutamate is a neurotransmitter in the CNS of mammals, including humans. However, at sufficiently high concentrations, glutamate is neurotoxic, resulting in neuronal cell death. Because glutamate is a naturally occurring neurotransmitter in the CNS of mammals, including humans, and because glutamate neurotoxicity is recognized in the art as reflective of neurotoxicity in general, and including cell death and degeneration, it is a valuable tool useful for identifying and characterizing agents effective in treatment of neurodegeneration and neural cell death.
Cover slips were placed into a large Petri dish and washed in 70% alcohol for 5 minutes, then washed with Millipore H2O. The cover slips were air dried, and coated with Poly-D-Lysine (1 mg/ml stock solution in PBS, 90-100 μl) for 2 hours at 34° C.
Postnatal day 8 Wistar rats were used for the study. The rats were sacrificed and placed in ice for 1 minute, decapitated and the cerebellum removed and placed on ice. Cerebellum tissue was placed in 1 ml of 0.65% glucose-supplemented PBS (10 μl 65% stock D (+)glucose/1 ml PBS) in a large Petri dish, chopped up into smaller sections and triturated with a 1 ml insulin syringe via a 23 G (0.4 mm) needle, and then squirted back into the glucose solution in the large Petri dish. The tissue was sieved through (125 μm pore size gauze) and centrifuged (2 minutes at 60 g) twice to exchange the medium into serum-free BSA-supplemented START V medium (Biochrom, Germany). The second centrifugation step was done with 1 ml of START V medium. The microexplants were reconstituted into 500 μl of START V medium and put on ice.
Two hours after PDL-coating, the slides were washed with Millipore H2O and air dried. Each slide was placed into a small Petri dish (diameter: 35 mm) and 40 μl of START V/cell suspension was added. The tissue was incubated for 2 hours at 34° C. (settlement period). START V-medium (1 ml) was then added to the Petri dish and cultivated at 34° C. in the presence of 5% CO2 in air at 100% humidity for 48 hours.
For the study, certain explant cultures were exposed to vehicle (PBS) only. In the first study (Study 1) 10 μl of toxin 1 (L-glutamate-100 mM in Millipore water; final concentration: 1 mM) and 10 μl of toxin 2 (3-nitropropionic acid-50 mM- pH 7- in Millipore water, final concentration: 0.5 mM) was applied simultaneously with the compounds to be tested (10 mM stock solution prepared in PBS and diluted to final concentrations between 1-100 nM). […]
Neurons in the explants were then evaluated for morphology (presence of neurites) and counted as live cells per microscopic field. Four fields displaying highest cell density were counted per cover slip and the data presented as mean±standard error of the mean (SEM); n=4 each. Statistical significance was evaluated by using the non-paired Student's t-test.

The subject of data set [2] is rats exposed to hypoxic-ischemic injury (HI). The data set can be described thus: Hypoxic-ischemic injury (modified Levine model), histological tissue damage score. Type of data set: in vivo, rat. Conditions: 100 pM icv, 20 μl over 20 minutes, 2 hours after hypoxic-ischemic insult; histology 5 days after injury; adult male Wistar rats; compared to vehicle treated group, p<0.001. The protocol:
To determine whether compounds of the invention might prevent neuronal injury in response to stroke, cardiac arterial bypass graft surgery (CABG) or other hypoxic insults, a series of studies were carried out in rats that had been exposed to hypoxic-ischemic injury (HI). Adult rats (Wistar, 280-310 g, male) were used. The modified Levine model preparation and experimental procedures were used (Rice et al, 1981, Ann. Neurol.: 9: 131-141; Guan et al J., 1993, Cereb. Blood Flow Metab.: 13(4): 609-16). These procedures in brief, consist of an HI injury induced by unilateral carotid artery ligation followed by inhalational asphyxia in the animals with an implanted lateral ventricular cannula. A guide cannula was stereotaxically placed on the top of the dura 1.5 mm to the right of the mid-line and 7.5 mm anterior to the interaural zero plane under halothane anaesthesia. […]
Coronal sections 8 μm in thickness were cut from the striatum, cerebral cortex and hippocampus and were stained with thionin and acid fuchsin. The histological outcome was assessed at three levels: (1) the mid level of the striatum, (2) where the completed hippocampus first appeared and (3) the level where the ventral horn of the hippocampus just appears. The severity of tissue damage was scored in the striatum, cortex and the CA1-2, CA3, CA4 and dentate gyrus of the hippocampus. […]

For the compound `CC(C)(C)OC(=O)[C@@H]1CC[C@@H]2CC=CCN(C(=O)OCc3ccccc3)CC(=O)N21`, in data set [1] (from C=CC[C@H]1CC[C@@H](C(=O)OC(C)(C)C)N1C(=O)CN(CC=C)C(=O)OCc1ccccc1, Grubbs I (bis(tricyclohexylphosphine)benzylideneruthenium dichloride), dichloromethane, 4.03 mM, 40.0 °C, 48.0 h), the ring closure, yield of all isomers stood at 46%. Consider `CC(C)(C)OC(=O)[C@@H]1CC[C@H]2CC=CCN(C(=O)OCc3ccccc3)CC(=O)N21`, for which the ring closure, yield of all isomers in data set [1] (from C=CC[C@@H]1CC[C@@H](C(=O)OC(C)(C)C)N1C(=O)CN(CC=C)C(=O)OCc1ccccc1, bis(tricyclohexylphosphine)benzylidineruthenium dichloride (Grubbs I), dichloromethane, 4.1 mM, 40.0 °C, 48.0 h) worked out at 42%.

As for `O=C(O)[C@@H]1CCCCNCC(=O)N2CCC[C@H]2C(=O)N[C@H](C(=O)O)C1`, in data set [1] (from C=CC[C@H](C[C@H](NC(=O)[C@@H]1CCCN1C(=O)CN(CC=C)C(=O)OCc1ccccc1)C(=O)OCc1ccccc1)C(=O)OCc1ccccc1, Grubbs II generated in situ (bis(tricyclohexylphosphine)benzylideneruthenium dichloride + SIMes.HBF4/KOtBu), benzene, 2.27 mM, 45.0 °C, 65.0 h, 2 steps), the ring closure, yield of all isomers came to 58%. As for `N[C@@H](CCC(=O)O)C(=O)O` [Glutamate, L-glutamate, reference compound], in the data set with cerebellar explants (glutamate 1 mM, compared to vehicle-treated controls), the “loss of cerebellar neurons having neurites” value is approximately 80%. As to `N[C@H]1CCCC[C@@H]2CC[C@@H](C(=O)N[C@@H](CCC(=O)O)C(=O)O)N2C1=O.O=C(O)C(F)(F)F` [compound 48, (2S, 3′S, 8′R, 11′S) 2-{[(3′-Amino-1′-aza-2′-oxobicyclo[6.3.0]-undecyl)-11′-carbonyl]amino}-1,5-pentanedioic acid trifluoroacetate salt], the “numbers of cells having neurites” value with cerebellar explants is reported as “significantly increased the numbers of cells having neurites in a dose-dependent manner”. Besides, the “recovery from / prevention of glutamate-induced neurotoxicity” value in the data set with cerebellar explants (glutamate 1 mM, trifluoroacetate salt) is “significant recovery; also recorded: prevented glutamate-induced neurotoxicity”.

For the compound `O=C(O)C(F)(F)F.O=C(O)CC[C@H](NC(=O)[C@@H]1CC[C@@H]2CCCCNCC(=O)N21)C(=O)O` [compound 68, (2S, 9′S, 12′S)-2-{[(1′,4′-Diaza-2′-oxobicyclo[7.3.0]dodecyl)-12′-carbonyl]amino}-1,5-pentanedioic acid trifluoroacetate], the “numbers of cells having neurites” value with cerebellar explants is “significantly increased the numbers of cells having neurites in a dose-dependent manner”. Moreover, in the data set with cerebellar explants (glutamate 1 mM), the “recovery from / prevention of glutamate-induced neurotoxicity” value is reported as “significant recovery; also recorded: prevented glutamate-induced neurotoxicity”. The “tissue damage (damage score) in striatum, cortex and hippocampus” value in data set [2] was “significantly reduced the tissue damage in each brain region examined”.
